Reference: patent US12090225B2 (Avalyn Pharma Inc., priority 2018, dated 2024)
Counter-ions that a name gives are not always drawn.

Assays:
[1] = 7 day stability testing of salts (40° C./75% RH, 80° C., ambient light; HPLC purity, XRPD); type: physicochemical; settings: listed as HCl salt
Description: High Performance Liquid Chromatography-Ultraviolet Detection (HPLC-UV): Instrument: Dionex Ultimate 3000; Column: Acquity CSH C18 100 mm×2.1 mm 1.7 μm; Column Temperature: 50° C.; Autosampler Temperature: Ambient; UV wavelength: 210 nm; Injection Volume: 4 μL; Flow Rate: 0.6 mL/min; Mobile Phase A: 0.1% formic acid in water; Mobile Phase B: 0.1% formic acid in acetonitrile. The HPLC method used the gradient in Table 2.
FT-IR appeared to be consistent with the structure. […] The material was physically stable to changes in temperature and humidity when stored for one week.
A new, poorly crystalline pattern was produced when stored at 40° C./75% RH—Pattern 4.
Purity of these materials remained unchanged (as shown in Table) apart from the sample stored at ambient light, where a 0.5% drop in purity was observed.

[2] = Disproportionation/hydration studies (pH, XRPD pattern); type: physicochemical; settings: for pH Pre-Agitation: listed as HCl salt
From the text: No XRPD data could be compiled on the hydration or disproportionation of the salt due to the high solubility in water and acetone/water mixtures.
The salt only remained Pattern 1 at 0.3 aw. New patterns 6 and 7 are likely hydrated due to the high water activity conditions for production.

[3] = Dynamic Vapour Sorption (DVS) hygroscopicity; type: physicochemical; settings: for DVS mass uptake at 90% RH: 25° C., uptake from input material; for Hygroscopicity: DVS
Description: Dynamic Vapour Sorption (DVS). Approximately, 10 mg of sample was placed into a mesh vapour sorption balance pan and loaded into a DVS-1 or DVS Advantage dynamic vapour sorption balance by Surface Measurement Systems. The sample was subjected to a ramping profile from 40-90% relative humidity (RH) at 10% increments, maintaining the sample at each step until a stable weight had been achieved (dm/dt 0.004%, minimum step length 30 minutes, maximum step length 500 minutes) at 25° C. After completion of the sorption cycle, the sample was dried using the same procedure to 0% RH and then a second sorption cycle back to 40% RH. Two cycles were performed. The weight change during the sorption/desorption cycles were plotted, allowing for the hygroscopic nature of the sample to be determined. XRPD analysis was then carried out on any solid retained.

[4] = Solid state and chemical stability of nintedanib HBr and HCl salts through 6 months; type: physicochemical; settings: for Weight loss: TGA/DSC
From the text: Table 24 and Table 25 summarize the total impurities (by HPLC), polymorphic form (by X-ray powder diffraction) and, where applicable, weight loss (by TGA/DSC) for both the HCl and HBr salt forms. […] There were no changes in polymorphic form for both salt forms stored at 25 C/60% RH condition.

[5] = Pattern stability screen of potential salts (40° C./75% RH, XRPD); type: physicochemical
Description: XRPD analysis was carried out on a PANalytical X'pert pro, scanning the samples between 3 and 35° 20. The material was gently compressed and loaded onto a multi-well plate with Kapton or Mylar polymer film to support the sample.
Primary Salt Screening. […] The solvent systems shown in Table were selected for salt screening. For sulfonic acids MEK was used instead of methanol and acetone:water 50:50 (v/v) was used instead of IPA:water to avoid any potential genotoxic impurities. Ca. […] If the acid was insoluble in the selected solvent, a slurry was used. If the acid was a liquid it was added to the API slurry from a stock solution in the allocated solvent. The mixtures of API/counterion/solvent were temperature cycled between ambient and 40° C. in 4 hour cycles for ca. 3 days. Any solids present were isolated and allowed to dry at ambient conditions, for ca. 30 minutes prior to analysis by XRPD. Where solutions were obtained they were evaporated to obtain solid material.

[6] = Aqueous solubility assessment of salts; type: physicochemical
[7] = Feasibility assessment of ready-to-use nintedanib HBr, HCl and esylate formulations; type: physicochemical; settings: NaCl at 10 mM; by itself
[8] = Inhaled pharmacokinetics of nintedanib salt forms (intratracheal); type: in vivo, C57BL/6 mice; settings: female, C57BL/6, mouse, lung, inhaled or intranasal, 1 mg/kg, 1 mg/kg (base equivalent) IT, mice; read-out: lung half-life
[9] = Citrate buffer formulation; type: physicochemical
[10] = Water pH titration; type: physicochemical; settings: 2 mg/mL Nintedanib slurry HCl sample
[11] = 0.5 mg/mL solubility assessment (filtered/unfiltered); type: physicochemical; settings: 0.5 mg/mL experiment; for pH: listed as HCl
[12] = HBr and HCl salts-filter compatibility study; type: physicochemical; settings: for visual appearance after filtration: 3% PG solution, glass vials, ambient room condition; for Visual appearance: listed as Nintedanib HCl Salt
Description: HBr and HCl salts-filter compatibility study: this study was conducted to assess the compatibility of the HBr and the HCl salts with various membrane filters. […] The glass vials were stored at ambient room condition and visual appearance was periodically inspected.

[13] = Water Activity 0.3 (acetone/water)
[14] = Water Activity 0.6 (acetone/water)
[15] = Water Activity 0.9 (acetone/water)
[16] = 40° C./75% RH, 2 months, listed as Nintedanib HCl salt
[17] = 40° C./75% RH, 6 months, listed as Nintedanib HCl salt
[18] = 0.5 mg/mL citrate buffer experiments, listed as HCl

COC(=O)c1ccc2c(c1)NC(=O)/C2=C(\Nc1ccc(N(C)C(=O)CN2CCN(C)CC2)cc1)c1ccccc1 [Nintedanib HCl]
XRPD pattern after 7 day stability testing ([1]; 40° C./75% RH, 80° C. and ambient light (all conditions)): remain pattern 1
Purity (%) ([1]; 40° C./75% RH, 7 day stability testing): 99.9%
Purity (%) ([1]; 80° C., 7 day stability testing): 99.9%
Purity (%) ([1]; Ambient, 7 day stability testing): 99.9%
Purity (%) ([1]; Input): 99.9%
pH Post-Agitation [2, 13]: 2.45
pH Pre-Agitation [2, 13]: 1.94
pH Post-Agitation [2, 14]: 2.33
pH Pre-Agitation [2, 14]: 2.32
pH Post-Agitation [2, 15]: 2.24
pH Pre-Agitation [2, 15]: 1.89
pH Post-Agitation ([2]; Water Activity 1.0 (water)): 2.33
pH Pre-Agitation ([2]; Water Activity 1.0 (water)): 2.05
DVS mass uptake at 90% RH ([3]; listed as HCl): further 2.2% uptake up
DVS mass uptake at 90% RH ([3]; listed as HCl salt): ca. 2.2%
Hygroscopicity ([3]; listed as HCl): Hygroscopic
Hygroscopicity ([3]; listed as HCl salt): hygroscopic
Post-DVS XRPD pattern ([3]; listed as HCl): Pattern unchanged
Post-DVS XRPD pattern ([3]; listed as HCl salt): remain unchanged
Total impurities ([4]; 25° C./60 % RH, 1 week, listed as Nintedanib HCl salt): 0.41%
Total impurities ([4]; 25° C./60 % RH, 2 months, listed as Nintedanib HCl salt): 0.36%
Total impurities ([4]; 25° C./60 % RH, 4 weeks, listed as Nintedanib HCl salt): 0.36%
Total impurities ([4]; 25° C./60 % RH, 6 months, listed as Nintedanib HCl salt): 0.46%
Total impurities ([4]; 25° C./60 % RH, Initial): 0.29%
Weight loss ([4]; 25° C./60 % RH, Initial, listed as Nintedanib HCl salt): 0.82%
Polymorphic form ([4]; 40° C./75% RH, 1 week): Pattern 1
Total impurities ([4]; 40° C./75% RH, 1 week, listed as Nintedanib HCl salt): 0.39%
Polymorphic form [4, 16]: Pattern 1
Total impurities [4, 16]: 0.37%
Total impurities ([4]; 40° C./75% RH, 4 weeks): 0.34%
Polymorphic form ([4]; 40° C./75% RH, 4 weeks, listed as Nintedanib HCl salt): Pattern 1
Polymorphic form [4, 17]: Pattern 1
Total impurities [4, 17]: 0.52%
Polymorphic form ([4]; 40° C./75% RH, Initial): Pattern 1
Total impurities ([4]; 40° C./75% RH, Initial): 0.29%
Weight loss ([4]; 40° C./75% RH, Initial, listed as Nintedanib HCl salt): 0.82%
XRPD pattern after 72 hrs 40° C./75% RH ([5]; Initial pattern 1): 1
XRPD pattern after 72 hrs 40° C./75% RH ([5]; Initial pattern 2): 2
XRPD pattern after 72 hrs 40° C./75% RH ([5]; Initial pattern 3, listed as HCl): 1
pH at 6 h ([6]; salt in water, after agitation): 2.26
pH at 18 h ([6]; salt in water, after agitation): 2.08
Initial pH ([6]; salt in water, solubility assessment): 2.22
solubility ([6]; thermodynamic from solid, deionized water added to 20 mg of salt, read-out: solubility in water): ~11 mg/mL
compatibility with NaCl [7]: not compatible
half-life [8]: ~4 min
Initial pH [9, 18]: 4.84
pH 1 h [9, 18]: 4.80
attempt to solubilize in citrate buffer ([9]; pH 4.75 citrate buffer, ~1.7 mg/mL (Nintedanib)): unsuccessful
pH upon cooling [10]: 4.76
concentration of the filtered sample ([10]; by HPLC): 1.7 mg/mL
concentration for filtered sample compared to unfiltered ([11]; listed as HCl salt): 99%
pH ([11]; Filtered): 5.36
pH ([11]; Unfiltered): 5.28
visual appearance after filtration ([12]; 0.22 μm PES filter): light precipitation after 2 weeks
visual appearance after filtration ([12]; 0.22 μm PVDF filter): precipitated shortly after filtration
visual appearance after filtration ([12]; 0.22 μm nylon filter): no change in appearance through 1 month
Visual appearance ([12]; PTFE filter, 1 month): Precipitation
Visual appearance ([12]; PTFE filter, 1 week): Precipitation
Visual appearance ([12]; PTFE filter, 2 weeks): Precipitation
Visual appearance ([12]; PVFD filter, 1 month): Precipitation
Visual appearance ([12]; PVFD filter, 1 week): Precipitation
Visual appearance ([12]; PVFD filter, 2 weeks): Precipitation
Visual appearance ([12]; PVFD filter, Initial): Precipitation
